Active and inactive are the calls of the source. The rule behind the calls is not given here.
Legend:
[1] = Antiproliferative activity against human HCT116 cells assessed as cell growth at 1 uM incubated for 3 days by 3H-thymidine incorporation assay relative to control; format: functional; details: HCT-116, read-out: Activity
MDA-MB-468 [2] = test: Antiproliferative activity against human MDA-MB-468 cells assessed as cell growth at 1 uM incubated for 3 days by 3H-thymidine incorporation assay relative to control; format: functional; details: read-out: Activity
MDA-MB-231 [3] = test: Antiproliferative activity against human MDA-MB-231 cells assessed as cell growth at 1 uM incubated for 3 days by 3H-thymidine incorporation assay relative to control; format: functional; details: read-out: Activity
Escherichia coli = test: Antibacterial activity against Escherichia coli DH5[alpha] at 1 to 10 mg/ml incubated overnight by agar diffusion method; format: functional, organism-based
Pseudomonas aeruginosa = test: Antibacterial activity against Pseudomonas aeruginosa at 1 to 10 mg/ml incubated overnight by agar diffusion method; format: functional, organism-based
Staphylococcus aureus = test: Antibacterial activity against Staphylococcus aureus at 1 to 10 mg/ml incubated overnight by agar diffusion method; format: functional, organism-based
[4] = Antiproliferative activity against human HCT116 cells assessed as cell growth incubated for 3 days by 3H-thymidine incorporation assay relative to control; format: functional, cell-based; details: HCT-116
MDA-MB-468 [5] = test: Antiproliferative activity against human MDA-MB-468 cells assessed as cell growth incubated for 3 days by 3H-thymidine incorporation assay relative to control; format: functional, cell-based
MDA-MB-231 [6] = test: Antiproliferative activity against human MDA-MB-231 cells assessed as cell growth incubated for 3 days by 3H-thymidine incorporation assay relative to control; format: functional, cell-based
K562 = test: Antiproliferative activity against human K562 cells assessed as cell growth incubated for 3 days by 3H-thymidine incorporation assay relative to control; format: functional, cell-based

Structure (SMILES) | growth at 1 µM [1] [%] | growth at 1 µM (MDA-MB-468 [2]) [%] | growth at 1 µM (MDA-MB-231 [3]) [%] | Activity (Escherichia coli) | Activity (Pseudomonas aeruginosa) | Activity (Staphylococcus aureus) | IC50 [4] [nM] | IC50 (MDA-MB-468 [5]) [nM] | IC50 (MDA-MB-231 [6]) [nM] | IC50 (K562) [nM]
Nc1c(C(=O)Nc2cccc(Cl)c2)sc2nc3c(cc12)CCCC3 | 80 | 58 | 98 | inactive | inactive | inactive | – | – | – | –
Nc1c(C(=O)Nc2cccc3ccccc23)sc2nc3c(cc12)CCCC3 | 37 | 8 | 60 | inactive | inactive | inactive | 720 | 447 | 854 | 576
Nc1c(C(=O)Nc2cccc(F)c2)sc2nc3c(cc12)CCCCC3 | 29 | 10 | 28 | – | – | – | 543 | 351 | 448 | 558
COc1cccc(NC(=O)c2sc3nc4c(cc3c2N)CCC4)c1 | 92 | 63 | 95 | inactive | inactive | inactive | – | – | – | –
Nc1c(C(=O)Nc2ccccc2)sc2nc3c(cc12)CCCC3 | 5 | 8 | 22 | – | – | – | 594 | 407 | 617 | 526
Cc1cccc(NC(=O)c2sc3nc4c(cc3c2N)CCCCC4)c1C | 6 | 4 | 6 | – | – | – | 204 | 121 | 198 | 167
Cc1c(Br)cccc1NC(=O)c1sc2nc3c(cc2c1N)CCCCC3 | 8 | 3 | 12 | – | – | – | 442 | 199 | 198 | 223
Cc1c(Cl)cccc1NC(=O)c1sc2nc3c(cc2c1N)CCCC3 | 3 | 6 | 15 | inactive | inactive | inactive | 191 | 134 | 221 | 153
Nc1c(C(=O)Nc2cccc(F)c2)sc2nc3c(cc12)CCCC3 | 11 | 11 | 30 | – | – | – | 563 | 398 | 632 | 554
Cc1c(Br)cccc1NC(=O)c1sc2nc3c(cc2c1N)CCCC3 | 5 | 3 | 5 | – | – | – | 207 | 185 | 233 | 185
Nc1c(C(=O)Nc2ccccc2F)sc2nc3c(cc12)CCCCC3 | 15 | 11 | 46 | – | – | – | 798 | 528 | 672 | 575
Cc1c(Br)cccc1NC(=O)c1sc2nc3c(cc2c1N)CCC3 | 5 | 5 | 16 | – | – | – | 161 | 79 | 84 | 83
Cc1cccc(NC(=O)c2sc3nc4c(cc3c2N)CCCC4)c1C | 5 | 3 | 4 | – | – | – | 199 | 148 | 204 | 152
Nc1c(C(=O)Nc2ccccc2Cl)sc2nc3c(cc12)CCCC3 | 94 | 95 | 119 | inactive | inactive | inactive | – | – | – | –
Cc1c(Cl)cccc1NC(=O)c1sc2nc3c(cc2c1N)CCCCC3 | 10 | 3 | 13 | – | – | – | 266 | 160 | 190 | 210
Nc1c(C(=O)Nc2ccccc2F)sc2nc3c(cc12)CCCCCC3 | 5 | 5 | 24 | – | – | – | 599 | 372 | 587 | 562
Nc1c(C(=O)Nc2ccccc2)sc2nc3c(cc12)CCCCC3 | 6 | 5 | 26 | – | – | – | 606 | 383 | 508 | 570
COc1cccc(NC(=O)c2sc3nc4c(cc3c2N)CCCCC4)c1 | 6 | 3 | 19 | – | – | – | 601 | 391 | 524 | 580
